Experimental data from patent publication EP4488278A1, “SUBSTITUTED PYRIDYL/PYRAZINYL DIHYDROPYRROLOTRIAZINE COMPOUNDS FOR COMBATTING PHYTOPATH-OGENIC FUNGI” (BASF SE, priority 2023, dated 2025).

What was measured:
[1] = test system: Botrytis cinerea; experiment: Microtest: activity against the grey mold Botrytis cinerea in the microtiterplate test; format: cell-based; conditions: 31 ppm active substance; absorption at 405 nm 7 days after inoculation, 18°C; relative to active compound-free control (100%)
Protocol: The active compounds were formulated separately as a stock solution having a concentration of 10000 ppm in dimethyl sulfoxide.
The stock solutions were mixed according to the ratio, pipetted onto a micro titer plate (MTP) and diluted with water to the stated concentrations. A spore suspension of Botrci cinerea in an aqueous biomalt or yeast-bactopeptone-sodiumacetate solution was then added. The plates were placed in a water vapor-saturated chamber at a temperature of 18°C. Using an absorption photometer, the MTPs were measured at 405 nm 7 days after the inoculation.
The measured parameters were compared to the growth of the active compound-free control variant (100%) and the fungus-free blank value to determine the relative growth in % of the pathogens in the respective active compounds.

[2] = test system: Botrytis cinerea; experiment: Green house: preventative fungicidal control of Botrytis cinerea on leaves of green pepper; format: in vivo; conditions: 250 ppm active substance, green pepper plants sprayed to run-off one day before inoculation; assessed visually as % diseased leaf area after 5 days at 22 to 24°C; untreated plants 90% infected
Protocol: The compound was dissolved in a mixture of acetone and/or dimethylsulfoxide and the wetting agent/emulsifier Wettol, which is based on ethoxylated alkylphenoles, in a ratio (volume) solvent-emulsifier of 99 to 1 to give a total volume of 5 ml. Subsequently, water was added to total volume of 100 ml. This stock solution was then diluted with the described solvent-emulsifier-water mixture to the final concentration given in the table below. Young seedlings of green pepper were grown in pots to the 4 to 5 leaf stage. These plants were sprayed to run-off with previously described spray solution, containing the concentration of active ingredient or mixture mentioned in the table below. The next day the plants were inoculated with an aqueous biomalt or DOB solution containing the spore suspension of Botrytis cinerea. Then the plants were immediately transferred to a humid chamber. After 5 days at 22 to 24°C and a saturated relative humidity, the extent of fungal attack on the leaves was visually assessed as % diseased leaf area.

| Compound | growth of the pathogen [1] | growth of the pathogen [2] |
| --- | --- | --- |
| Cc1cc(C2=NC(C)(C)Nn3cccc32)cnc1C(F)F [Ex-2, 4-(6-(difluoromethyl)-5-methylpyridin-3-yl)-2,2-dimethyl-1,2-dihydropyrrolo[2,1-f][1,2,4]triazine] | 0% |  |
| Cc1cc(C2=NC(C)(C)N(C)n3cccc32)cnc1C(F)F [Ex-1, 4-(6-(difluoromethyl)-5-methylpyridin-3-yl)-1,2,2-trimethyl-1,2-dihydropyrrolo[2,1-f][1,2,4]triazine] | 0% | at most 7% |
